Literature values in patent US20240156829A1, “Stable Antiemetic Emulsions for Parenteral Administration” (Slayback Pharma LLC, priority 2022, published 2024).
Counter-ions that a name gives are not always drawn.

Columns and labels:
[1] = in vivo
[2] = by light or oxygen or heavy metals

In the case of `C[C@@H](O[C@H]1OCCN(Cc2n[nH]c(=O)[nH]2)[C@H]1c1ccc(F)cc1)c1cc(C(F)(F)F)cc(C(F)(F)F)c1` [Aprepitant, 5-([(2R, 3S)-2-((R)-1-[3,5-bis (trifluoromethyl)phenyl]ethoxy)-3-(4-fluoro-phenyl)morpholino]methyl)-1H-1,2,4-triazol-3(2H)-one], the solubility is given as “very poor”.
For `O=C1c2cccc3c2[C@H](CCC3)CN1[C@@H]1CN2CCC1CC2` [Palonosetron hydrochloride, (3aS)-2-[(3S)-1-azabicyclo [2.2.2]octan-3-yl]-3a,4,5,6-tetrahydro-3H-benzo[de] isoquinolin-1-one; hydrochloride], the half-life [1] is listed as 40 h and the “Stability in a liquid medium” value [2] is listed as “easily oxidized and degraded”.
